The NIST ThermoML archive (doi:10.1021/je050402s)
Numbers after ± are expanded uncertainties.

How the values were obtained:
[1] = 100.5 kPa, Liquid
[2] = xn = mol fraction of the nth substance listed; conditions: 100.5 kPa, Liquid, x2 = 0
[3] = 288.15 K, Capillary tube (Ostwald / Ubbelohde) method
[4] = 298.15 K, Capillary tube (Ostwald / Ubbelohde) method
[5] = 308.15 K, Capillary tube (Ostwald / Ubbelohde) method
[6] = 318.15 K, Capillary tube (Ostwald / Ubbelohde) method

Row | Structure (SMILES) | mass density ([1]; 288.15 K) [kg/m3] | viscosity [1, 3] [mPa·s] | mass density ([1]; 298.15 K) [kg/m3] | viscosity [1, 4] [mPa·s] | mass density ([1]; 308.15 K) [kg/m3] | viscosity [1, 5] [mPa·s] | mass density ([1]; 318.15 K) [kg/m3] | viscosity [1, 6] [mPa·s] | viscosity [2, 3] [mPa·s] | mass density ([2]; 288.15 K) [kg/m3] | viscosity [2, 4] [mPa·s] | mass density ([2]; 298.15 K) [kg/m3] | viscosity [2, 5] [mPa·s] | mass density ([2]; 308.15 K) [kg/m3] | viscosity [2, 6] [mPa·s] | mass density ([2]; 318.15 K) [kg/m3] | other results
1 | CC(=O)OCc1ccccc1 [benzyl ethanoate] | 1060.11 ± 0.31 | 2.53 ± 0.018 | 1050.75 ± 0.29 | 2.056 ± 0.017 | 1041.39 ± 0.28 | 1.703 ± 0.015 | 1032.03 ± 0.27 | 1.432 ± 0.015 | – | – | – | – | – | – | – | – | –
2 | CCC(=O)OCc1ccccc1 [benzyl propanoate] | 1036.86 ± 0.36 | 2.55 ± 0.019 | 1027.6 ± 0.35 | 2.123 ± 0.018 | 1018.38 ± 0.34 | 1.787 ± 0.016 | 1009.15 ± 0.34 | 1.515 ± 0.015 | – | – | – | – | – | – | – | – | –
3 | CCO [ethanol] | 793.6 ± 0.45 | 1.337 ± 0.014 | 785 ± 0.46 | 1.105 ± 0.014 | 776.31 ± 0.48 | 0.921 ± 0.013 | 767.44 ± 0.49 | 0.771 ± 0.013 | – | – | – | – | – | – | – | – | –
4 | CCO [ethanol] + CC(=O)OCc1ccccc1 | – | – | – | – | – | – | – | – | 1.337 ± 0.014 | 793.6 ± 0.45 | 1.105 ± 0.014 | 785 ± 0.46 | 0.921 ± 0.013 | 776.31 ± 0.48 | 0.771 ± 0.013 | 767.44 ± 0.49 | –
5 | CCO [ethanol] + CCC(=O)OCc1ccccc1 | – | – | – | – | – | – | – | – | 1.337 ± 0.014 | 793.6 ± 0.45 | 1.105 ± 0.014 | 785 ± 0.46 | 0.921 ± 0.013 | 776.31 ± 0.48 | 0.771 ± 0.013 | 767.44 ± 0.49 | –
6 | CCO [ethanol] + CCOC(=O)CC(C)=O | – | – | – | – | – | – | – | – | 1.337 ± 0.014 | 793.6 ± 0.45 | 1.105 ± 0.014 | 785 ± 0.46 | 0.921 ± 0.013 | 776.31 ± 0.48 | 0.771 ± 0.013 | 767.44 ± 0.49 | –
7 | CCO [ethanol] + CCOC(=O)CC(C)C | – | – | – | – | – | – | – | – | 1.337 ± 0.014 | 793.6 ± 0.45 | 1.105 ± 0.014 | 785 ± 0.46 | 0.921 ± 0.013 | 776.31 ± 0.48 | 0.771 ± 0.013 | 767.44 ± 0.49 | –
8 | CCO [ethanol] + CCOC(=O)c1ccccc1O | – | – | – | – | – | – | – | – | – | 793.6 ± 0.45 | – | 785 ± 0.46 | – | 776.31 ± 0.48 | – | 767.44 ± 0.49 | viscosity ([2]; 288.15 K): 1.337 ± 0.019 mPa·s; viscosity ([2]; 298.15 K): 1.105 ± 0.017 mPa·s; viscosity ([2]; 308.15 K): 0.921 ± 0.016 mPa·s; viscosity ([2]; 318.15 K): 0.771 ± 0.015 mPa·s
9 | CCO [ethanol] + COC(=O)c1ccccc1 | – | – | – | – | – | – | – | – | 1.337 ± 0.014 | 793.6 ± 0.45 | 1.105 ± 0.014 | 785 ± 0.46 | 0.921 ± 0.013 | 776.31 ± 0.48 | 0.771 ± 0.013 | 767.44 ± 0.49 | –
10 | CCOC(=O)c1ccccc1O [ethyl 2-hydroxybenzoate] | 1134.72 ± 0.41 | – | 1125 ± 0.39 | – | 1115.29 ± 0.38 | – | 1105.6 ± 0.37 | – | – | – | – | – | – | – | – | – | viscosity ([1]; 288.15 K): 3.694 ± 0.041 mPa·s; viscosity ([1]; 298.15 K): 2.831 ± 0.032 mPa·s; viscosity ([1]; 308.15 K): 2.253 ± 0.027 mPa·s; viscosity ([1]; 318.15 K): 1.842 ± 0.023 mPa·s
11 | CCOC(=O)CC(C)C [ethyl 3-methylbutanoate] | 869.66 ± 0.55 | 0.853 ± 0.014 | 859.78 ± 0.55 | 0.739 ± 0.013 | 849.83 ± 0.56 | 0.642 ± 0.013 | 839.81 ± 0.57 | 0.566 ± 0.013 | – | – | – | – | – | – | – | – | –
12 | CCOC(=O)CC(C)=O [ethyl 3-oxobutanoate] | 1033.92 ± 0.45 | 1.902 ± 0.017 | 1023.45 ± 0.44 | 1.581 ± 0.016 | 1013 ± 0.43 | 1.344 ± 0.015 | 1002.54 ± 0.43 | 1.144 ± 0.014 | – | – | – | – | – | – | – | – | –
13 | COC(=O)c1ccccc1 [methyl benzoate] | 1093.23 ± 0.52 | 2.297 ± 0.019 | 1083.92 ± 0.51 | 1.851 ± 0.017 | 1074.34 ± 0.5 | 1.531 ± 0.016 | 1064.62 ± 0.49 | 1.297 ± 0.015 | – | – | – | – | – | – | – | – | –
